Assay results: patent US11306073B2, “N-acylurea derivative and composition comprising same for prevention or treatment of cardiovascular disease” (KOREA UNIVERSITY RESEARCH AND BUSINESS FOUNDATION, priority 2016, dated 2022)

How the values were obtained:
CHO/αIIbβ3 cell line = assay: Screening of talin antagonist candidates: binding of CHO/αIIbβ3 cells to fibrinogen-coated plate (CCK-8 readout); format: cell-based; conditions: 0.2 mM of candidate; compared to a negative control; FIG. 2; read-out: inhibition of the binding between the CHO/αIIbβ3 cell line and fibrinogen
Description: Cells expressing platelet integrin αIIbβ3 were incubated with 0.2 mM of candidates, and the binding between the cells and fibrinogen was verified according to the experimental method shown in FIG. 1. In FIG. 2, 0% is a negative control and represents the degree to which cells adhere to a surface coated with bovine serum albumin (BSA) instead of fibrinogen, and 100% is a positive control and represents the degree to which cells adhere to fibrinogen in the absence of any candidate. The ability of candidates to inhibit fibrinogen binding was normalized to 100%, and the mean and standard error of three experiments are graphically shown.
Platelets bind to fibrinogen present in blood and produce thrombi. This binding is mediated by integrin αIIbβ3 present in the platelet cell membrane, and this integrin binds to fibrinogen after being activated by talin. In order to enable high-throughput efficacy testing by simplifying this procedure into a cell line-based experiment, integrin αIIbβ3 was first stably expressed in the CHO cell line using lentivirus, thereby constructing a CHO/αIIbβ3 cell line. The constructed cell line was cultured in a fibrinogen-coated 96-well plate for 1 hour and washed, after which the amount of remaining cells was measured to evaluate the efficacy of a talin antagonist candidate. In this procedure, in order to measure the relative amount of the CHO/αIIbβ3 cell line remaining in the well due to binding to fibrinogen, a cell counting kit-8 (CCK-8) was used to measure the activity of dehydrogenase present in the remaining cells. When the activity of dehydrogenase appeared due to the presence of the cells, the color of CCK-8 changed from yellow to orange (FIG. 1). To measure the degree to which the color changed to orange, the absorbance at a wavelength of 450 nm was measured with a plate reader. This enabled easy, fast and reliable high-throughput screening.
To screen talin antagonist candidates, inhibition of the binding affinity between the CHO/αIIbβ3 cell line and fibrinogen was examined by the above-described efficacy testing method.
As a result, it was shown that compounds, including KCH-1420, KCH-1424, KCH-1510, KCH-1511, KCH-1512, KCH-1513, KCH-1516, KCH-1518, KCH-1521, KCH-1523, KCH-1526, KCH-1529, KCH-1530, and KCH-1542 inhibited the binding between the CHO/αIIbβ3 cell line and fibrinogen by at least 80% compared to a negative control (FIG. 2). […] In FIG. 3, like FIG. 2, cells expressing platelet integrin αIIbβ3 were incubated with varying concentrations of a candidate, and the binding between the cells and fibrinogen was examined. Cell adhesion on the Y-axis is the relative degree of cell-fibrinogen binding.

[1] = molecular target: T1, talin protein (6×His-tagged F2F3 protein) (Homo sapiens, UniProt Q9Y490); assay: Binding affinity between talin protein and candidate by surface plasmon resonance; conditions: SPR, talin F2F3 immobilized on sensor chip; FIG. 4; read-out: affinity constant
T1 construct: 6×His-tagged F2F3 protein containing F3 was isolated and purified; 6×His; made in house
T1 sequence (Q9Y490 196-405 limits assumed): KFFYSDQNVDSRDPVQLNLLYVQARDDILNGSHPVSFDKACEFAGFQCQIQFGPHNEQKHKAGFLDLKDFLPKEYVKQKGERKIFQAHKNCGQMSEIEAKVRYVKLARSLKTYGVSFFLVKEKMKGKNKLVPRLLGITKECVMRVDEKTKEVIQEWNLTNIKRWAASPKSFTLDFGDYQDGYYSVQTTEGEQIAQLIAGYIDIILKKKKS
Description: To measure the binding affinity between the talin protein and a talin antagonist candidate, surface plasmon resonance spectroscopy was used. Specifically, a talin antagonist candidate was added to the talin protein immobilized on a sensor chip, and the affinity constant between the two substances was measured by surface plasmon resonance (hereinafter referred to as ‘SPR’) spectrometry.
Talin is divided into an N-terminal head domain and a C-terminal rod domain, and the head domain is further divided into four subdomains, F0, F1, F2 and F3. Among them, F3 is known as an integrin binding site. Thus, 6×His-tagged F2F3 protein containing F3 was isolated and purified. As a sensor chip for immobilizing the talin protein, HTEPBE10PO1 (Biorad) was used. SPR was measured using ProteON™ XPR36 (Biorad).

mouse blood platelets = assay: Platelet aggregation inhibitory effect using mouse platelets activated by thrombin; format: cell-based; conditions: 0.2 mM compound, FIG. 5
Description: It is well known that platelets bind to fibrinogen in blood and form thrombi, which leads to the contraction of intracellular skeletal muscle due to signaling after the binding between activated integrin a αIIbβ3 and fibrinogen. To achieve this thrombus formation in vitro, mouse blood platelets were isolated and thrombin known as a platelet activator was added thereto. As a result, as shown in the left photograph of FIG. 5, the platelets were aggregated. However, when platelets were treated with thrombin in combination with KCH-1513 or KCH-1521, it was observed that platelet aggregation that was increased by thrombin decreased when 0.2 mM of KCH-1513 (middle photograph) or the same concentration of KCH-1521 (right photograph) was added.

Row | SMILES | inhibition at 200 µM (CHO/αIIbβ3 cell line) | Kd [1] | inhibition of thrombin-induced platelet aggregation (mouse blood platelets)
1 | Cc1cccc(OCC(=O)NC(=O)Nc2ccccc2F)c1C [KCH-1420, 2-(2,3-dimethylphenoxy)-N-((2-fluorophenyl)carbamoyl)acetamide] | ≥ 80% |  | 
2 | CC(C)(C)OC(=O)N1CCN(CC(=O)NC(=O)Nc2ccccc2F)CC1 [KCH-1424, tert-butyl 4-(2-(3-(2-fluorophenyl)ureido)-2-oxoethyl)piperazine-1-carboxylate] | ≥ 80% |  | 
3 | COc1cc(NC(=O)NC(=O)Cn2nnc(-c3ccccc3)n2)ccc1Br [KCH-1510, N-((4-bromo-3-methoxyphenyl)carbamoyl)-2-(5-phenyl-2H-tetrazol-2-yl)acetamide] | ≥ 80% |  | 
4 | O=C(Cn1nnc(-c2ccccc2)n1)NC(=O)Nc1ccc(Oc2ccccc2)cc1 [KCH-1511, N-((4-phenoxyphenyl)carbamoyl)-2-(5-phenyl-2H-tetrazol-2-yl)acetamide] | ≥ 80% |  | 
5 | COc1ccc(CNC(=O)NC(=O)Cn2nnc(-c3ccccc3)n2)cc1 [KCH-1512, N-((4-methoxybenzyl)carbamoyl)-2-(5-phenyl-2H-tetrazol-2-yl)acetamide] | ≥ 80% |  | 
6 | O=C(Cn1nnc(-c2ccccc2)n1)NC(=O)NCCC1=CNC2C=CC=CC12 (stereo not drawn) [KCH-1513, N-((2-(3a,7a-dihydro-1H-indol-3-yl)ethyl)carbamoyl)-2-(5-phenyl-2H-tetrazol-2-yl)acetamide] | ≥ 80% | 9.33 mM | significantly inhibit platelet aggregation
7 | O=C(Cn1nnc(-c2ccccc2)n1)NC(=O)Nc1ccccc1F [KCH-1516, N-((2-fluorophenyl)carbamoyl)-2-(5-phenyl-2H-tetrazol-2-yl)acetamide] | ≥ 80% |  | 
8 | COc1cc(NC(=O)NC(=O)COc2ccc3c(c2)OCO3)ccc1Br [KCH-1518, 2-(benzo[d][1,3]dioxo1-5-yloxy)-N-((4-bromo-3-methoxyphenyl)carbamoyl) acetamide] | ≥ 80% |  | 
9 | O=C(COc1ccc2c(c1)OCO2)NC(=O)NCCc1c[nH]c2ccccc12 [KCH-1521] | ≥ 80% | 0.271 mM | significantly inhibit platelet aggregation
10 | O=C(COc1ccc2c(c1)OCO2)NC(=O)Nc1ccc(OCc2ccccc2)cc1 [KCH-1523, 2-(benzo[d][1,3]dioxol-5-yloxy)-N-((4-(benzyloxy)phenyl)carbamoyl) acetamide] | ≥ 80% |  | 
11 | COc1cc(NC(=O)NC(=O)COc2ccccc2OC)ccc1Br [KCH-1526, N-((4-bromo-3-methoxyphenyl)carbamoyl)-2-(2-methoxyphenoxy)acetamide] | ≥ 80% |  | 
12 | COc1ccccc1OCC(=O)NC(=O)NCCc1c[nH]c2ccccc12 [KCH-1529, N-((2-(1H-indol-3-yl)ethyl)carbamoyl)-2-(2-methoxyphenoxy)acetamide] | ≥ 80% |  | 
13 | COc1ccc(NC(=O)NC(=O)COc2ccccc2OC)c(OC)c1 [KCH-1530, N-((2,4-dimethoxyphenyl)carbamoyl)-2-(2-methoxyphenoxy)acetamide] | ≥ 80% |  | 
14 | COc1ccc(NC(=O)NC(=O)COc2cccc(Br)c2)c(OC)c1 [KCH-1542, 2-(3-bromophenoxy)-N-((2,4-dimethoxyphenyl)carbamoyl)acetamide] | ≥ 80% |  | 
